Laboratory results from publication PMC5228037, “Discovery and Mechanistic Characterization of Selective Inhibitors of H2S-producing Enzyme: 3-Mercaptopyruvate Sulfurtransferase (3MST) Targeting Active-site Cysteine Persulfide” (Scientific Reports, 2017).

Target: T1, 3MST-overexpressing COS7 cells (Mus musculus, UniProt Q99J99)
T1 construct: expressed in transfected cells; host or cells: COS7 (transient)
T1 sequence (Q99J99 1-297): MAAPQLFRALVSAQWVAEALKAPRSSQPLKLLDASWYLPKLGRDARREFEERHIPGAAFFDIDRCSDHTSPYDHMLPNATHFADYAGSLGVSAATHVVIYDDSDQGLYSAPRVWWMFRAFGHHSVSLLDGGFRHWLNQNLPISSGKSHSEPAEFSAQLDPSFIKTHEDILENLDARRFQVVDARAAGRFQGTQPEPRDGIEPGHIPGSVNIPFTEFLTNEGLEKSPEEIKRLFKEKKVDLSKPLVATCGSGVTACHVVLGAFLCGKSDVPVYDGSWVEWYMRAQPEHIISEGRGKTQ
Assay: Live-cell fluorescence imaging with SSP4 in 3MST-overexpressing COS7 cells
Assay type: cell-based
Procedure: Figure 2 Selectivity assessment of hit compounds for 3MST over other H2S/polysulfides-producing enzymes and rhodanese. (a) 3MST-Inhibitory activity of hit compounds at 10 and 100 μM in cell lysate of 3MST-expressing HEK293 cells. 100 μM 3MP and 100 μM DTT were added to the solution containing 0.1% DMSO as a cosolvent, and the mixture was incubated at 37 °C for 15 min. H2S production was measured by gas chromatography. All data are presented as the mean ± S.D. (100 μM: n = 3 or 4; 10 μM: n = 3). (b) Selectivity assessment of hit compounds at 100 μM towards CBS and CSE. Only DMSO was added to the control sample instead of DMSO solution containing hit compounds. H2S production was monitored by gas chromatography. All data are presented as the mean (n = 3). (c) Detection method for rhodanese activity (Sörbo method). (d) Selectivity assessment of hit compounds towards rhodanese. The results are mean ± S.D. (n = 4, three times). These values were determined based upon the absorbance of [Fe(SCN)3] at 460 nm (Sӧrbo method). […] (e) Fluorescence confocal microscopic images of live COS7 cells transfected with 3MST or an empty vector[9] as a control. […] F/F0 was calculated by dividing the fluorescence intensity of cells after addition of 500 μM 3MP (10 min) by that of cells before addition of 500 μM 3MP (Pre), then the mean F/F0 was determined from 5 cells. […]

3MST activity in living cells (SSP4 sulfane sulfur fluorescence after 500 μM 3MP) (1 μM compound, 3MST-overexpressing COS7 cells): almost completely suppressed
Cell-membrane permeability (concluded from suppression of 3MST activity in live COS7 cells): cell-membrane permeable
Compound: Cc1cc(=O)[nH]c(SCC(=O)c2cccc3ccccc23)n1 [compound 3]
